Values after ≈ are worked out from the molar mass of the structure shown. Values joined by “and” are separate entries in the source; they are usually repeats but may differ in a detail not shown here. Equal values may be shown once. Read-outs that look alike come from different tables or passages of the source.
Key:
[1] = tested on: H. influenzae; experiment: Study 95-001 otitis media caused by H. influenzae; type: in vivo, human; conditions: 3-day regimen (10 mg/kg/day); 13 patients; follow-up
Protocol: (§1) Specimens for culture and susceptibility testing were obtained from the infected ear by tympanocentesis within 24 h of start of therapy. […] However, the study was evaluated using the breakpoints in the most recent set of guidelines.
(§2) To be a bacteriological cure, the MITT subject had to have a positive culture from the middle ear for S. pneumoniae, H influenzae, or M. catarrhalis. Eradication was defined as presumed eradication of pretreatment pathogen(s) based on signs/symptoms or unavailability of culturable material. All evaluable patients had only one of the bacterial species present at baseline. There was no bacteriological response data collected for 95–001. However, the clinical outcome by bacterial pathogen at follow-up (approximately 28 days after first visit) was collected. For patients with S. pneumoniae as the baseline pathogen, all treatment arms yielded 100% clinical cure when the investigators' evaluations that were missing are not included in the analysis. […] The comparator drug, ceftriaxone, had no failures out of 9 patients.

[2] = Azithromycin serum pharmacokinetics in mice; type: in vivo, mouse; conditions: for Cmax / Tmax / AUC(0-t): female, CF-1, mouse, Serum PK, total dose 100 mg/kg oral; for AUC(0-t): read-out: AUC(0-tlast)
Protocol: Blood and pulmonary tissue samples were taken starting at 0.5 h post-dose and at predetermined intervals over a 96 h period. […] […] The lower limit of quantification (LLOQ) was 50 ng/ml. […] Interassay variability was <7%. Pharmacokinetic parameters were calculated using the non-compartmental method by WinNonlin 2.1 (Scientific Consulting, Inc.).

[3] = tested on: H. influenzae 54A1218; experiment: MIC determination, H. influenzae 54A1218; type: cell-based; conditions: Haemophilus influenzae
Protocol: MIC Determinations. Streptococcus pneumoniae, S. pyogenes, E. faecalis, and H. influenzae MICs were determined using the broth microdilution procedure recommended by the NCCLS. Test trays were incubated at 35C without carbon dioxide. For testing of streptococci, the cation-adjusted Mueller-Hinton broth was supplemented with 2–3% lysed horse blood. For testing H. influenzae, freshly prepared Haemophilus Test Medium broth was used.
Bacterial Strains. • S. pneumoniae 02J1016, serotype 3, originally isolated from blood culture (strain P 4241) (MLS- and penicillin-susceptible). • S. pyogenes 02C0203, ATCC 12384, group A, type 3 (MLS-susceptible). • E. faecalis 03A1085, vancomycin susceptible clinically derived strain. • H. influenzae 54A1100, (43095 ATCC Fulghum strain) non-serotype B strain originally isolated from otitis media (macrolide and penicillin susceptible). • H. influenzae 54A1218, clinically derived non-serotype B strain (macrolide-susceptible, penicillin-resistant, TEM-1 beta-lactamase).

[4] = tested on: pneumococcal challenge; conditions: single dose compared with all the other dose regimens; cited from earlier work
[5] = tested on: Haemophilus influenzae 54A1100; experiment: Gerbil middle ear (otitis media) infection model, ED50, H. influenzae 54A1100; type: in vivo
[6] = tested on: M. catarrhalis; experiment: Susceptibility testing of trial M. catarrhalis isolates; type: cell-based, Moraxella catarrhalis; conditions: NCCLS criteria
From the text: Samples of middle ear fluid were split for storage at a central laboratory and cultured locally. All pathogens isolated locally were subcultured and sent to a central laboratory for confirmation and susceptibility testing, performed by Kirby-Bauer disk-diffusion or MIC testing according to NCCLS standards.
Cultures were taken for antimicrobial susceptibility testing and bacterial species were identified. Current NCCLS approved breakpoints for MICs and zone sizes were applied to all data irrespective of the breakpoint in use at the time of the study. The isolates from the clinical studies were sent to central laboratories for identification and susceptibility determination. The methods for agar diffusion disk tests are those recommended by NCCLS.
The susceptibility breakpoints for azithromycin were defined as follows: […]

[7] = tested on: Chlamydia trachomatis; conditions: azithromycin (± an anti-inflammatory agent); cited from earlier work
[8] = tested on: Streptococcus pneumoniae 02J1016; experiment: Murine peritonitis model, Streptococcus pneumoniae; type: in vivo, mouse; conditions: oral QD
[9] = tested on: H. influenzae; experiment: Study 95-001 Kirby-Bauer disk diffusion susceptibility, H. influenzae; type: cell-based, Haemophilus influenzae; conditions: all H. influenzae organisms isolated
Protocol: as §1

[10] = tested on: Haemophilus influenzae 54A1218; experiment: Gerbil middle ear (otitis media) infection model, ED50, H. influenzae 54A1218; type: in vivo; conditions: for ED50: past studies
[11] = tested on: Haemophilus influenzae 54A1100; experiment: Murine acute infection (peritonitis) model challenged with Haemophilus influenzae; type: in vivo, mouse; conditions: for PD50: s.c.
[12] = tested on: Haemophilus influenzae 54A1218; experiment: Gerbil middle ear infection in vivo time kill, H. influenzae 54A1218; conditions: for eradication: at 72 and 96 hours post-infection
[13] = tested on: S. pneumoniae; experiment: Study 95-001 otitis media, S. pneumoniae as baseline pathogen; type: in vivo, human; conditions: five patients in azithromycin regimens with S. pneumoniae isolates with intermediate resistance
Protocol: as §1, §2

[14] = 33 mg/kg, 3 days of dosing, 33.3 mg/kg/dose
[15] = 1 day of dosing, 100 mg/kg/dose
[16] = 2 days of dosing, 50 mg/kg/dose
[17] = oral QD, gerbil otitis media model
[18] = oral QD, murine peritonitis model

CC[C@H]1OC(=O)[C@H](C)[C@@H](O[C@H]2C[C@@](C)(OC)[C@@H](O)[C@H](C)O2)[C@H](C)[C@@H](O[C@@H]2O[C@H](C)C[C@H](N(C)C)[C@H]2O)[C@](C)(O)C[C@@H](C)CN(C)[C@H](C)[C@@H](O)[C@]1(C)O [Azithromycin, 9a-aza-9a-methyl-9-deoxo-9a-homoerythromycin A]
failures [1]: 2 | Cmax, single dose vs. the same total dose administered over 3 days ([2]; better when administered as a single dose): 3 fold | Cmax [2, 14]: 980 ng/mL | Tmax [2, 14]: 26 h | AUC(0-t) [2, 14]: 19800 ng·h/mL | Cmax [2, 15]: 2100 ng/mL | Tmax [2, 15]: 2 h | AUC(0-t) [2, 15]: 18800 ng·h/mL | Cmax [2, 16]: 1300 ng/mL | Tmax [2, 16]: 26 h | AUC(0-t) [2, 16]: 15900 ng·h/mL | MIC [3]: 0.78 µg/mL (≈ 1.04 µM) | survival versus a pneumococcal challenge [4]: significantly increased survival | ED50 ([5]; Dosing Regimen 1 day): 138.1 (118.7–157.6) mg/kg/total | ED50 ([5]; Dosing Regimen 2 days): 138.1 (118.7–157.6) mg/kg/total | ED50 ([5]; Dosing Regimen 3 days): 162.9 (140–185.9) mg/kg/total | ED50 One-Day Therapy [5, 17]: 138 mg/kg/therapy | ED50 Three-Day Therapy [5, 17]: 163 mg/kg/therapy | ED50 Two-Day Therapy [5, 17]: 138 mg/kg/therapy | ED50 ([5]; past studies, Q.D. 3): 162.7 mg/kg/total regimen | susceptibility of isolated M. catarrhalis to azithromycin [6]: susceptible | preserving fertility [7]: superior to doxycycline and ofloxacin combinations | ED50 One-Day Therapy [8]: 8.7^1 mg/kg/therapy | ED50 Three-Day Therapy [8]: 15.1 mg/kg/therapy | ED50 Two-Day Therapy [8]: 7.6 mg/kg/therapy | zone sizes (agar diffusion) [9]: ≥ 19 mm | susceptibility by agar diffusion (zone size) ([9]; NCCLS breakpoint of ≧12 mm): susceptible | ED50 One-Day Therapy [10, 17]: 84 mg/kg/therapy | ED50 Three-Day Therapy [10, 17]: 65 mg/kg/therapy | ED50 Two-Day Therapy [10, 17]: 53 mg/kg/therapy | ED50 ([10]; Q.D. 1): 83.8 (53.6–114.1) mg/kg/total regimen | ED50 ([10]; Q.D. 2): 53.4 (21.2–85.5) mg/kg/total regimen | ED50 ([10]; Q.D. 3): 65.2 (51–79.4) mg/kg/total regimen | Oral PD50 ([11]; Dosing Regimen 1 day): 25.3 (14.3–36.2) mg/kg/day | Oral PD50 ([11]; Dosing Regimen 2 days): 49.9 (41.5–58.5) mg/kg/day | Oral PD50 ([11]; Dosing Regimen 3 days): 181.6 (180.1–183.1) mg/kg/day | Mice Surviving/Total ([11]; mouse, in vivo): 0/10 and 6/10 and 10/10 and 9/10 and 1/10 and 5/10 | PD50 ([11]; one therapeutic dose (one day regimen)): 25.3 mg/kg | ED50 One-Day Therapy [11, 18]: 30.3^1 mg/kg/therapy | ED50 Three-Day Therapy [11, 18]: 147 mg/kg/therapy | ED50 Two-Day Therapy [11, 18]: 48 mg/kg/therapy | PD50 ([11]; previously tested, standard dosing paradigm (b.i.d. on day 1)): 27 mg/kg | Recoverable CFU (Bulla) [Log10.Geo.Mean] (SEM) ([12]; 66.6 mg/kg/day oral Q.D. [3 days], 48 hours post-infection): <5.2399 (1.21) log of cfu-bulla wash/ml and <5.2399 log of cfu-bulla wash/ml | Recoverable CFU (Bulla) [Log10.Geo.Mean] (SEM) ([12]; 66.6 mg/kg/day oral Q.D. [3 days], 72 hours post-infection): <2.0000 log of cfu-bulla wash/ml | Recoverable CFU (Bulla) [Log10.Geo.Mean] (SEM) ([12]; 66.6 mg/kg/day oral Q.D. [3 days], 96 hours post-infection): <2.0000 log of cfu-bulla wash/ml | Recoverable CFU (Bulla) [Log10.Geo.Mean] (SEM) ([12]; 100 mg/kg/day oral Q.D. [2 days], 48 hours post-infection): <3.8587 (1.04) log of cfu-bulla wash/ml and <3.857 log of cfu-bulla wash/ml | Recoverable CFU (Bulla) [Log10.Geo.Mean] (SEM) ([12]; 100 mg/kg/day oral Q.D. [2 days], 72 hours post-infection): <2.0000 log of cfu-bulla wash/ml | Recoverable CFU (Bulla) [Log10.Geo.Mean] (SEM) ([12]; 100 mg/kg/day oral Q.D. [2 days], 96 hours post-infection): <2.0000 log of cfu-bulla wash/ml | Recoverable CFU (Bulla) [Log10.Geo.Mean] (SEM) ([12]; 200 mg/kg/day oral Q.D. [1 day], 48 hours post-infection): <2.0000 log of cfu-bulla wash/ml | Recoverable CFU (Bulla) [Log10.Geo.Mean] (SEM) ([12]; 200 mg/kg/day oral Q.D. [1 day], 72 hours post-infection): <2.0602 log of cfu-bulla wash/ml | Recoverable CFU (Bulla) [Log10.Geo.Mean] (SEM) ([12]; 200 mg/kg/day oral Q.D. [1 day], 96 hours post-infection): <2.0000 log of cfu-bulla wash/ml | eradication ([12]; Q.D. 2): eradication was observed | eradication ([12]; Q.D. 3): eradication was observed | % Clearance of Group ([12]; QD1, 48 hours post infection, <1 × 10^3 cfu/ml considered negative): 100% | % Clearance of Group ([12]; QD1, 72 hours post infection): 100% | % Clearance of Group ([12]; QD1, 96 hours post infection): 100% | % Clearance of Group ([12]; QD2, 48 hours post infection): 40% | % Clearance of Group ([12]; QD2, 72 hours post infection): 100% | % Clearance of Group ([12]; QD2, 96 hours post infection): 100% | % Clearance of Group ([12]; QD3, 48 hours post infection): 40% | % Clearance of Group ([12]; QD3, 72 hours post infection): 100% | % Clearance of Group ([12]; QD3, 96 hours post infection): 100% | clinical outcomes at EOT or follow-up [13]: either “cure” or “improvement”

Reference: patent publication US6987093B2 (priority 2001, dated 2006)
